Drawing on ChEMBL document CHEMBL1147149, “Ecdysteroids from Serratula wolffii roots” (2007), this text covers LC50 for three compounds.

Each structure is given as a SMILES string.

The subject of this assay is Acyrthosiphon pisum. In words: Toxicity against larvae of orally dosed Acyrthosiphon pisum Harris. It counts as functional.
The LC50 is the concentration that kills 50% of the test population. Lower therefore signals greater toxicity. With `C/C(=C\CCC(C)(C)O)[C@H]1CC[C@@]2(O)C3=CC(=O)[C@@H]4C[C@@H](O)[C@@H](O)C[C@]4(C)C3CC[C@]12C` (stereo partly drawn), the LC50 is greater than 100 ppm.

Regarding `C/C(=C\CCC(C)(C)O)[C@H]1CC[C@@]2(O)C3=CC(=O)[C@@H]4C[C@@H](O)[C@@H](O)[C@@H](O)[C@]4(C)C3CC[C@]12C` (stereo partly drawn), the LC50 is recorded as 48.5 ppm.

In turn, `CC(C)(O)CC[C@@H](O)[C@](C)(O)[C@H]1CC[C@@]2(O)C3=CC(=O)[C@@H]4C[C@@H](O)[C@@H](O)C[C@]4(C)[C@H]3CC[C@]12C` [20-HYDROXYECDYSONE] had an LC50 of 1.07 ppm.
